From ChEMBL document CHEMBL4651402, “Screening of ~5500 FDA-approved drugs and clinical candidates for anti-SARS-CoV-2 activity” (2021)
pIC50: −log10 of the molar value.

Legend:
[1] = system: SARS-CoV-2; assay: microbe, parasite or virus in culture; conditions: Severe acute respiratory syndrome coronavirus 2, Vero C1008, 48 h; for IC50: read-out: pIC50 (converted)
[2] = system: SARS-CoV-2; assay: microbe, parasite or virus in culture; format: functional, organism-based, Chlorocebus sabaeus, Vero C1008; conditions: Severe acute respiratory syndrome coronavirus 2, Vero C1008, 48 h; for pIC50: read-out: IC50; for IC50: read-out: pIC50 (converted)
[3] = in vitro; conditions: chlorocebus sabaeus
[4] = Vero E6 (Vero C1008) cells, CC50
[5] = Vero E6 (Vero C1008) cells, pCC50

SMILES | pIC50 [1] | IC50 [1] [µM] | pIC50 [2] | IC50 [2] [µM] | CC50 at 48 h [3, 4] [µM] | CC50 at 48 h [3, 5] [µM] | CC50 at 48 h ([3]; vero c1008, CC50) [µM] | CC50 at 48 h ([3]; vero c1008, pCC50) [µM]
CC(Cc1ccc(O)c(O)c1)C(C)Cc1ccc(O)c(O)c1 (stereo not drawn) [NORDIHYDROGUAIARETIC ACID] | < 4.00 | > 100 | < 4.00 | > 100 | 37.2 | 37.2 | – | –
CNCCC=C1c2ccccc2CCc2ccccc21 [NORTRIPTYLINE] | 4.80 | 15.8 | < 4.00 | > 100 | – | – | 24 | 24
CN(C)CCON=C1c2ccccc2CCc2ccccc21 [NOXIPTILINE] | 4.85 | 14.1 | < 4.00 | > 100 | 77.6 | 77.6 | – | –
Cc1[nH]c(/C=C2\C(=O)Nc3ccccc32)c(C)c1CCC(=O)O [ORANTINIB] | ~5.75 | ~1.78 | < 4.60 | > 25.1 | > 25.1 | > 25.1 | – | –
C=CC(=O)Nc1cc(Nc2nccc(-c3cn(C)c4ccccc34)n2)c(OC)cc1N(C)CCN(C)C [OSIMERTINIB] | < 4.00 | > 100 | < 4.00 | > 100 | 3.09 | 3.09 | – | –
CNCC(O)CC12CCC(c3ccccc31)c1ccccc12 (stereo not drawn) [OXAPROTILINE] | < 4.00 | > 100 | < 4.00 | > 100 | 28.2 | 28.2 | – | –
O=C(O)CCc1nc(-c2ccccc2)c(-c2ccccc2)o1 [OXAPROZIN] | 4.93 | 11.7 | < 4.30 | > 50.1 | > 50.1 | > 50.1 | – | –
O=c1[nH]c2ccccc2n1CCCN1CCN(C(c2ccccc2)c2ccccc2)CC1 [OXATOMIDE] | < 4.00 | > 100 | < 4.00 | > 100 | ~12.6 | ~12.6 | – | –
CN(C(=O)CN(CCO)CC(=O)N(C)C(C)(C)Cc1ccccc1)C(C)(C)Cc1ccccc1 [OXETHAZAINE] | 4.73 | 18.6 | < 4.00 | > 100 | 26.3 | 26.3 | – | –
N=C(N)c1ccc(C=C2c3ccccc3-c3ccccc32)cc1 [PARANYLINE] | 5.46 | 3.47 | < 4.00 | > 100 | 2.92 | 2.88 | – | –
Fc1ccc([C@@H]2CCNC[C@H]2COc2ccc3c(c2)OCO3)cc1 [PAROXETINE] | 4.82 | 15.1 | < 4.00 | > 100 | 16.6 | 16.6 | – | –
CC(C)(C)NC[C@H](O)COc1ccccc1C1CCCC1 [PENBUTOLOL] | 4.82 | 15.1 | 4.70 | 20 | 29.5 | 29.5 | – | –
OC1(c2ccc(Cl)c(C(F)(F)F)c2)CCN(CCCC(c2ccc(F)cc2)c2ccc(F)cc2)CC1 [PENFLURIDOL] | < 4.00 | > 100 | < 4.00 | > 100 | 3.59 | 3.55 | – | –
CN1CCN(CCCN2c3ccccc3Sc3ccccc32)CC1 [PERAZINE] | 4.85 | 13.8 | < 4.00 | > 100 | 14.6 | 14.5 | – | –
N#Cc1ccc2c(c1)N(CCCN1CCC(O)CC1)c1ccccc1S2 [PERICIAZINE] | < 4.70 | > 20 | < 4.00 | > 100 | 12.7 | 12.6 | – | –
CN1CCC(=C2c3ccccc3Sc3ccccc32)CC1 [PIMETHIXENE] | < 4.00 | > 100 | < 4.00 | > 100 | 25.7 | 25.7 | – | –
Cc1c(-c2ccc(O)cc2)n(Cc2ccc(OCCN3CCCCC3)cc2)c2ccc(O)cc12 [PIPENDOXIFENE] | 5.44 | 3.63 | < 5.20 | > 6.31 | 4.62 | 4.57 | – | –
CC(=O)c1ccc2c(c1)N(CCCN1CCC(CCO)CC1)c1ccccc1S2 [PIPERACETAZINE] | 4.79 | 16.2 | < 4.90 | > 12.6 | 12.2 | 12 | – | –
COc1cc(/C=C/C(=O)N2CCC=CC2=O)cc(OC)c1OC [PIPLARTINE] | < 4.30 | > 50.1 | < 4.30 | > 50.1 | 9.55 | 9.55 | – | –
CN(C)S(=O)(=O)c1ccc2c(c1)N(CCCN1CCC(CCO)CC1)c1ccccc1S2 [PIPOTIAZINE] | 4.86 | 13.8 | < 4.00 | > 100 | – | 7.24 | – | –

SMILES | pIC50 [1] | IC50 [1] [µM] | pIC50 [2] | IC50 [2] [µM] | CC50 at 48 h [3, 4] [µM] | CC50 at 48 h [3, 5] [µM] | CC50 at 48 h ([3]; vero c1008, CC50) [µM] | CC50 at 48 h ([3]; vero c1008, pCC50) [µM]
Cc1ccc(C(=O)Nc2ccc(CN3CCN(C)CC3)c(C(F)(F)F)c2)cc1C#Cc1cnc2cccnn12 [PONATINIB] | < 4.00 | > 100 | < 4.00 | > 100 | 0.989 | 0.977 | – | –
CC[C@@H]([C@H](C)O)n1ncn(-c2ccc(N3CCN(c4ccc(OC[C@@H]5CO[C@@](Cn6cncn6)(c6ccc(F)cc6F)C5)cc4)CC3)cc2)c1=O [POSACONAZOLE] | < 4.00 | > 100 | < 4.00 | > 100 | > 100 | > 100 | – | –
CCCC(C(=O)OCCN(CC)CC)(c1ccccc1)c1ccccc1 [PROADIFEN] | 5.29 | 5.13 | < 4.00 | > 100 | 24 | 24 | – | –
Nc1ccc2cc3ccc(N)cc3nc2c1 [PROFLAVINE] | ~4.82 | ~14.8 | < 4.60 | > 25.1 | ~6.61 | ~6.61 | – | –
CN(C)CCCN1c2ccccc2Sc2ccccc21 [PROMAZINE] | 4.79 | 16.2 | < 4.00 | > 100 | 25.7 | 25.7 | – | –
CC(CN1c2ccccc2Sc2ccccc21)N(C)C (stereo not drawn) [PROMETHAZINE] | 4.66 | 21.9 | < 4.00 | > 100 | 33.1 | 33.1 | – | –
CCCOc1ccc(C(=O)CCN2CCCCC2)cc1 [PROPIPOCAINE] | < 4.00 | > 100 | < 4.00 | > 100 | 31.6 | 31.6 | – | –
CNCCCC1c2ccccc2C=Cc2ccccc21 [PROTRIPTYLINE] | < 4.00 | > 100 | < 4.00 | > 100 | – | – | 26.3 | 26.3
CCCCCCC(C)(C)c1cc(O)c([C@H]2CC(=O)[C@H]3C[C@@H]2C3(C)C)c(OC(=O)/C=C/C(=O)O)c1 [PRS-211375] | < 4.00 | > 100 | < 4.30 | > 50.1 | 7.67 | 7.59 | – | –
COC(=O)[C@H]1[C@H]2C[C@@H]3c4[nH]c5cc(OC)ccc5c4CCN3C[C@H]2C[C@@H](OC(=O)c2cc(OC)c(OC)c(OC)c2)[C@@H]1OC [RESERPINE] | < 4.60 | > 25.1 | < 4.30 | > 50.1 | ~11 | ~11 | – | –
Cc1nc(Nc2ccc(F)cc2)nc(N2CCc3ccccc3C2C)c1C (stereo not drawn) [REVAPRAZAN] | < 4.00 | > 100 | 4.98 | 10.5 | 11.5 | 11.5 | – | –
CN(C)C(=O)c1cc2cnc(Nc3ccc(N4CCNCC4)cn3)nc2n1C1CCCC1 [RIBOCICLIB] | < 4.00 | > 100 | < 4.00 | > 100 | 38.9 | 38.9 | – | –
Cc1cc2nc3c(=O)[nH]c(=O)nc-3n(C[C@H](O)[C@H](O)[C@H](O)CO)c2cc1C [RIBOFLAVIN] | ~4.95 | ~11.2 | < 4.30 | > 50.1 | > 50.1 | > 50.1 | – | –
OCc1cc(C(O)CNCCCCCCOCCCCc2ccccc2)ccc1O (stereo not drawn) [SALMETEROL] | 4.72 | 19.1 | < 4.00 | > 100 | 18.6 | 18.6 | – | –
CCC(C)n1ncn(-c2ccc(N3CCN(c4ccc(OC[C@H]5CO[C@](Cn6cncn6)(c6ccc(F)cc6F)O5)cc4)CC3)cc2)c1=O (stereo partly drawn) [SAPERCONAZOLE] | < 4.00 | > 100 | < 4.00 | > 100 | > 100 | > 100 | – | –
Cc1ccc(C(=O)N(CCCN)[C@@H](c2oc3cc(Cl)ccc3c(=O)c2Cc2ccccc2)C(C)C)cc1 [SB-743921] | < 4.30 | > 50.1 | < 4.30 | > 50.1 | 2.63 | 2.63 | – | –
Cc1nc2ccccn2c(=O)c1CCN1CCC(=C(c2ccc(F)cc2)c2ccc(F)cc2)CC1 [SEGANSERIN] | 5.12 | 7.59 | < 4.00 | > 100 | 10.2 | 10.2 | – | –
CCN(CC)CCNC(=O)c1ccc(NS(C)(=O)=O)cc1 [SEMATILIDE] | 5.41 | 3.89 | < 4.00 | > 100 | > 100 | > 100 | – | –
NCC[C@H](Oc1ccc(C(F)(F)F)cc1)c1ccccc1 [SEPROXETINE] | 5.12 | 7.59 | < 4.00 | > 100 | 10.6 | 10.5 | – | –
